The source of these data is publication PMC3388911, “Structure of Leishmania major cysteine synthase” (Acta Crystallographica Section F: Structural Biology and …, 2012).

In general, IC50 refers to the point on the concentration scale where inhibition reaches its midpoint. Broadly, the Ki is the equilibrium dissociation constant of an inhibitor or competing ligand from its target. Low readings indicate a stronger hold on the target, high ones a looser hold on the target. As usually defined, the stoichiometry N is the number of molecules, sites or subunits per partner or assembly.

Data set [1] concerns the target T1, LmCS (L. major cysteine synthase) (Leishmania major, UniProt Q4Q159).
T1 sequence (Q4Q159 1-333): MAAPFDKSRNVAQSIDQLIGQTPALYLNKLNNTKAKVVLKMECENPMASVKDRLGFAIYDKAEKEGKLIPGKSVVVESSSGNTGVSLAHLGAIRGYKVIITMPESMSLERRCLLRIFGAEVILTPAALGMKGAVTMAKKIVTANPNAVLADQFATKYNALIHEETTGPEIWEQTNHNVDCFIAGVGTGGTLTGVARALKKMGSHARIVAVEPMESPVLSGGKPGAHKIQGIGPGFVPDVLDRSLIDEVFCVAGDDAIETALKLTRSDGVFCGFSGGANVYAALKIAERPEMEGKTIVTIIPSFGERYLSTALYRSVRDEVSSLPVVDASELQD
In words: biochemical.

Data set [2] addresses T2, AtOAS-TL (A. thaliana O-acetylserine thiol-lyase) (Arabidopsis thaliana, UniProt P47998). Briefly: biochemical.
Data set [3] concerns the target T2, AtOAS-TL (A. thaliana O-acetylserine thiol-lyase). Conditions: read-out: AtOAS-TL IC50; 3 mM OAS, 2 mM sodium sulfide, pH 7.8, room temperature; values with ± are mean ± SD of three determinations, others single IC50 curve.
For data set [4], the system named is Mycobacterium tuberculosis CS (OASS). As to conditions: ref Schnell et al., 2007; cited from earlier work.
Data set [5] concerns the target Arabidopsis thaliana O-acetylserine thiol-lyase (Arabidopsis thaliana, UniProt P47998 1-322). In words: cell-based or functional assay.
In data set [6] the target is T3, Leishmania major cysteine synthase, C-terminally His-tagged (biochemical analysis) (Leishmania major) (UniProt Q4Q159).
T3 sequence: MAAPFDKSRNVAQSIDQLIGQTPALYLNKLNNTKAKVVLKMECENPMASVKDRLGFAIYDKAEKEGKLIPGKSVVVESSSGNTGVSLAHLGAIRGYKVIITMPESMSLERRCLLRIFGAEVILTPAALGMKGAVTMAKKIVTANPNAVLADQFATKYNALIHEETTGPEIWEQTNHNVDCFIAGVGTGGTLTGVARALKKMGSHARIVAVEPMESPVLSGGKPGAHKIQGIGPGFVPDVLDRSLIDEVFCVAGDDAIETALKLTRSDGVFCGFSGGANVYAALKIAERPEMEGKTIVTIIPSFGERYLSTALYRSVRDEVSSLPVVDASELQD

The target of data set [7] is Arabidopsis thaliana O-acetylserine thiol-lyase (Arabidopsis thaliana) (UniProt P47998).
Data set [8] concerns the molecule itself. Briefly: crystal structure; hanging drop at 293 K, 7.5% PGA-LM, 19% PEG 3350, 0.1 M Tris-HCl pH 7.8; P212121, dimer in the asymmetric unit; 1.8 Å; molecular replacement.
Setting [9] is: 3 mM OAS, 2 mM sodium sulfide, pH 7.8, room temperature, values with ± are mean ± SD of three determinations, others single IC50 curve, read-out: LmCS IC50.
Setting [10] is: LmCS IC50, 3 mM OAS, 2 mM sodium sulfide, pH 7.8, room temperature, values with ± are mean ± SD of three determinations, others single IC50 curve.

Read-outs that look alike come from different tables or passages of the source. Where a SMILES comes first, the peptide text is derived from it. Where no end group is shown, it is not given here. The star is where a group is joined. Cbz = O=C(OCc1ccccc1)*

T2 sequence (P47998 whole entry): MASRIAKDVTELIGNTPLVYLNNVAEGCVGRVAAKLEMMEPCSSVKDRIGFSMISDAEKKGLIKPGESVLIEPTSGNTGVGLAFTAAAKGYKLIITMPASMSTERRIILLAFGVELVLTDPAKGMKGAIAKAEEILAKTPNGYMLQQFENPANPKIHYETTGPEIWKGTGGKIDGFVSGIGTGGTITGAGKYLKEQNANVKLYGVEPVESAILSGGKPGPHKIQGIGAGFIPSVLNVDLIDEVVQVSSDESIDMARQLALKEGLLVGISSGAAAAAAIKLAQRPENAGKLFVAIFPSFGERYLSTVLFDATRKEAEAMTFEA
Arabidopsis thaliana O-acetylserine thiol-lyase (Arabidopsis thaliana), sequence (P47998 whole entry): as above
Arabidopsis thaliana O-acetylserine thiol-lyase, sequence (P47998 whole entry): as above

With `CC[C@H](C)[C@H](N)C(=O)O` [L-Isoleucine], the IC50 in data set [1] (setting [9]) was above 4000 µM. The “inhibition of LmCS” value in data set [1] (at 4 mM) is given as “no activity”.
For EGDGSGI [EGDGSGI], the IC50 stood at 240 µM in data set [2] and 270 ± 70 µM in data set [1] (setting [10]).
On to `CC[C@H](C)[C@H](NC(=O)CNC(=O)[C@H](CO)NC(=O)CN)C(=O)O` [GSGI] (H-GSGI-OH), for which the IC50 is at most 2000 µM in data set [3]; around 1500 µM in data set [1] (LmCS IC50, 3 mM OAS, 2 mM sodium sulfide); 1500 µM in data set [1] (setting [10]).
In the case of `CC[C@H](C)[C@H](NC(=O)OCc1ccccc1)C(=O)O` [N-CBZ-L-isoleucine], the midpoint of inhibition in data set [1], the IC50, lay at 320 µM.
For the molecule `CC[C@H](C)[C@H](NC(=O)[C@@H](NC(=O)[C@H](Cc1ccc(O)cc1)NC(=O)[C@@H](N)CC(=O)O)C(C)C)C(=O)O` [DYVI] (H-DYVI-OH), the Ki in data set [1] came to 4 µM. Also, in data set [1] (setting [10]), the IC50 worked out at 7 ± 1 µM.
`CC[C@H](C)[C@H](NC(=O)[C@@H](NC(=O)OCc1ccccc1)C(C)C)C(=O)O` [N-CBZ-L-valine-isoleucine] (Cbz-Val-Ile-OH): in data set [1], the IC50 came out at 1410 µM.
`CC[C@H](C)[C@H](NC(=O)Cc1c[nH]c2ccccc12)C(=O)O` [N-3-Indolylacetyl-L-isoleucine]: the IC50 in data set [1] (setting [9]) was 260 µM.
Take DGSGI [DGSGI]: the values for the IC50 in data set [2] and in data set [1] (setting [10]) were 170 µM and 620 ± 50 µM, respectively.
As for DFSI, the “type of inhibition of M. tuberculosis OASS” value in data set [4] is given as “competitive inhibitor”.
With (γ-Glu)4, the “inhibition of LmCS” value in data set [1] (tested up to a concentration of 500 µM) was “unable to detect any significant inhibition”; in data set [1] (tested up to a concentration of 500 µM, listed as D-glutamate tetrapeptide) it was “insignificant inhibitory activity”.

B1: DYVI, peptide based on the C-terminus of A. thaliana serine acetyltransferase (peptide)
peptide: DYVI
modifications: not fully specified
For the molecule B1, the results for the “IC50 of inhibition of cysteine synthase activity (cysteine production; 3 mM OAS, 2 mM sodium sulfide)” value in data set [5] and in data set [6] were 8 µM and 7 µM, respectively.

B2: EGDGSGI, Leishmania SAT C-terminal heptapeptide (peptide)
peptide: EGDGSGI
In data set [7], B2 displayed an IC50 of inhibition of cysteine synthase activity (cysteine production; 3 mM OAS, 2 mM sodium sulfide); single IC50 curve of 240 µM. This molecule came in with an IC50 of inhibition of cysteine synthase activity (cysteine production; 3 mM OAS, 2 mM sodium sulfide) in data set [6] of 270 µM.

B3: GSGI, Leishmania SAT C-terminal peptide (peptide)
peptide: GSGI
As for B3, the IC50 of inhibition of cysteine synthase activity (cysteine production; 3 mM OAS, 2 mM sodium sulfide); single IC50 curve in data set [7] was below 2000 µM; in data set [6], 1500 µM.

B4: Leishmania major cysteine synthase (crystallised form, His tag cleaved) (enzyme)
chain: MAAPFDKSRNVAQSIDQLIGQTPALYLNKLNNTKAKVVLKMECENPMASVKDRLGFAIYDKAEKEGKLIPGKSVVVESSSGNTGVSLAHLGAIRGYKVIITMPESMSLERRCLLRIFGAEVILTPAALGMKGAVTMAKKIVTANPNAVLADQFATKYNALIHEETTGPEIWEQTNHNVDCFIAGVGTGGTLTGVARALKKMGSHARIVAVEPMESPVLSGGKPGAHKIQGIGPGFVPDVLDRSLIDEVFCVAGDDAIETALKLTRSDGVFCGFSGGANVYAALKIAERPEMEGKTIVTIIPSFGERYLSTALYRSVRDEVSSLPVVDASELQD
notes: Leishmania major cysteine synthase (EC 2.5.1.47); LmCS gene subcloned from pET21a+ into pET15bTEV; theoretical mass of one subunit 35.6 kDa; residues 3-213 and 241-333 (subunit A) and 4-214 and 241-333 (subunit B) are seen in the model; The pyridoxal phosphate cofactor was lost in the crystal; A fragment of gamma-poly-D-glutamic acid lies in the active site; also called LmCS; L. major CS; source: …
For B4, the “stoichiometry N” value in data set [8] came out at 2.

B5: DGSGI, Leishmania SAT C-terminal peptide (peptide)
peptide: DGSGI
In data set [7], B5 registered an IC50 of inhibition of cysteine synthase activity (cysteine production; 3 mM OAS, 2 mM sodium sulfide); single IC50 curve of 170 µM. For the same molecule, in data set [6], the IC50 of inhibition of cysteine synthase activity (cysteine production; 3 mM OAS, 2 mM sodium sulfide) was 620 µM.
